Measurements: US20040048821A1, “Enhancement of drug cytotoxicity in tumor cells containing mutant Rb gene” (Cold Spring Harbor Laboratory, priority 1997, published 2004)

What was measured:
Format in all cases: cell-based, human
[1] = test system: Snos2 osteosarcoma cells; assay: Drug cytotoxicity (adriamycin, TNF) in Snos2 osteosarcoma cells; details: Snos2 cells with control vector, doses tested
Experimental: (§1) A control vector, E1A or the E1A mutants (ΔN or ΔCR2) were introduced into tumor cells via retroviral mediated gene transfer and analyzed for drug cytoxicity within a few days of gene transfer. Cell populations were treated with adriamycin or tumor necrosis factor a (or both).

[2] = test system: BT-549 breast carcinoma cells; assay: Drug cytotoxicity (adriamycin) in BT-549 breast carcinoma cells; details: BT549 cells containing a control vector
Experimental: as §1

[3] = test system: U2OS osteosarcoma cells; assay: Drug cytotoxicity (adriamycin, TNF) in U2OS osteosarcoma cells; details: U2OS cells with control vector, doses tested
Experimental: as §1

## COc1cccc2c1C(=O)c1c(O)c3c(c(O)c1C2=O)C[C@@](O)(C(=O)CO)C[C@@H]3O[C@H]1C[C@H](N)[C@H](O)[C@H](C)O1 [adriamycin]
[1]
  apoptosis following drug treatment: do not undergo apoptosis
[2]
  apoptosis following drug treatment: unable to induce apoptosis
[3]
  apoptosis / cell death following drug treatment: do not undergo apoptosis
